{"source": "patent US5976497A", "about": "“Dopamine D4 receptor ligands” (Resolution Pharmaceuticals, Inc., priority 1997, dated 1999)", "key": {"[1]": {"target": "T1, D4 (Homo sapiens, UniProt P21917, DEL265-296)", "T1 construct": "expressed in transfected cells; host or cells: HEK 298 cells (so in the source); membrane preparations", "T1 sequence (P21917 with tags, fused parts or gaps DEL265-296)": "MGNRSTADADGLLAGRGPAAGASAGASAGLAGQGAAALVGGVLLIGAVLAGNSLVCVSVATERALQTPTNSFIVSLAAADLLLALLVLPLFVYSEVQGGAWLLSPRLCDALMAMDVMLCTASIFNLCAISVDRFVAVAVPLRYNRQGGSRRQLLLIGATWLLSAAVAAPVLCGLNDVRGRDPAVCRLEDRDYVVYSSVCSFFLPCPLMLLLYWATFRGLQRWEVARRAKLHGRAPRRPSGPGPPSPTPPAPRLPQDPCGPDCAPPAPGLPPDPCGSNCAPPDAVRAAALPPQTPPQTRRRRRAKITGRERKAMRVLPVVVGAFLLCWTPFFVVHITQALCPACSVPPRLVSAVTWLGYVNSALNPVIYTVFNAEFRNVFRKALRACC", "test": "D4 receptor-binding affinity (reduction of ^3 H-spiperone binding)", "details": "for Ki: ^3 H-spiperone displacement, Ki by Cheng and Prusoff transformation of IC50", "experimental": "(§1) The potency of the test compound to reduce ^3 H-spiperone binding is directly correlated to its binding affinity for the receptor.\n(§2) The test compounds were assayed at a range of concentrations and the % inhibition of ^3 H-spiperone binding at each test concentration was measured. Specific binding in the absence of test compound is the difference of total binding minus non-specific binding and similarly specific binding (in the presence of test compound) is the difference of displacement binding minus non-specific binding.\n(§3) where [L] is the concentration of ^3 H-spiperone used in the assay and KD is the dissociation constant of ^3 H-spiperone determined independently under the same binding conditions."}, "[2]": {"target": "T2, D2 (Homo sapiens, UniProt P14416)", "T2 construct": "expressed in transfected cells; host or cells: GH4C1 (rat pituitary) cells, stably transfected; membrane preparations", "T2 sequence (P14416 1-414 isoform P14416-2)": "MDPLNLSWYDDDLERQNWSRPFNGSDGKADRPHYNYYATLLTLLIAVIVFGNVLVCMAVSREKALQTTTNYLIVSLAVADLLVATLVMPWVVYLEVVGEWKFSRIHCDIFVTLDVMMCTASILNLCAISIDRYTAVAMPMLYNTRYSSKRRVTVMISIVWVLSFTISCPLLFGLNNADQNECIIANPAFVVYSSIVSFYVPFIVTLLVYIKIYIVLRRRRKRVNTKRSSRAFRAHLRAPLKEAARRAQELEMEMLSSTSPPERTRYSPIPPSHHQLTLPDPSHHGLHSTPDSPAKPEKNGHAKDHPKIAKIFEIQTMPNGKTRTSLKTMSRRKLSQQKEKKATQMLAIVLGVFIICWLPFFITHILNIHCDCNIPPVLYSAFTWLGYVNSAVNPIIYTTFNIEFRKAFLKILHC", "test": "D2 receptor-binding affinity (reduction of ^3 H-spiperone binding)", "details": "for Ki: ^3 H-spiperone displacement, Ki by Cheng and Prusoff transformation of IC50", "experimental": "as §1, §2, §3"}, "[3]": {"target": "D4 receptor", "details": "marketed products, background statement; cited from earlier work"}, "[4]": {"tested_on": "D4 receptor relative to the D2 receptor", "details": "marketed products, background statement; cited from earlier work"}}}
{"compound": "3-[4-(pyridin-2-yl)-piperazin-1-yl]methyl-1H-pyrrolo[2,3-b]pyridine [Example 1]", "values": [{"measurement": "Ki", "setting": "[1]", "result": 1, "unit": "nM"}, {"measurement": "Ki", "setting": "[2]", "result": 3660, "unit": "nM"}]}
{"compound": "CN1CCN(C2=Nc3cc(Cl)ccc3Oc3ccccc32)CC1", "note": "[isoloxapine]", "values": [{"measurement": "Ki", "setting": "[3]", "result": "~20", "unit": "nM"}, {"measurement": "preference for binding to the D4 receptor relative to the D2 receptor", "setting": "[4]", "result": "about 10 fold"}]}
{"compound": "Brc1ccc(N2CCN(Cc3c[nH]c4ncccc34)CC2)nc1", "note": "[Example 3, 3-[4-(5-bromopyridin-2-yl)-piperazin-1-yl]methyl-1H-pyrrolo[2,3-b]pyridine]", "values": [{"measurement": "inhibition at 0.001 µM", "setting": "[1]; 1 nM, ^3 H-spiperone", "result": 26, "unit": "%"}, {"measurement": "inhibition at 0.01 µM", "setting": "[1]; 10 nM, ^3 H-spiperone", "result": 78, "unit": "%"}, {"measurement": "inhibition at 0.1 µM", "setting": "[1]; 100 nM, ^3 H-spiperone", "result": 98, "unit": "%"}, {"measurement": "inhibition at 0.001 µM", "setting": "[2]; 1 nM, ^3 H-spiperone", "result": "< 10", "unit": "%"}, {"measurement": "inhibition at 0.01 µM", "setting": "[2]; 10 nM, ^3 H-spiperone", "result": "< 10", "unit": "%"}, {"measurement": "inhibition at 0.1 µM", "setting": "[2]; 100 nM, ^3 H-spiperone", "result": "< 10", "unit": "%"}]}
{"compound": "3-[4-(5-iodopyridin-2-yl)-piperazin-1-yl]methyl-1H-pyrrolo[2,3-b]pyridine [Example 2]", "values": [{"measurement": "Ki", "setting": "[1]", "result": 0.91, "unit": "nM"}, {"measurement": "Ki", "setting": "[2]", "result": 621, "unit": "nM"}]}
